Measurements published in patent US10842838B2, “Method for the use of botanical extracts in the treatment of viral infections” (priority 2012, dated 2020).

Tested on: VACV
Type: cell-based, vaccinia virus
Conditions: 100 pfu VACV, 48 HPI

## C=C(C)[C@@H]1CC[C@]2(C)CC[C@]3(C)[C@H](CC[C@@H]4[C@@]5(C)CC[C@H](O)C(C)(C)[C@@H]5CC[C@]43C)[C@@H]12 [lupeol]
  antiviral activity, VACV plaques: did not show suitable antiviral activity
